Measured values as given in ChEMBL document CHEMBL1201862, “PubChem BioAssay data set” (2004).
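Following 48 hours of exposure in 96-well plates, responses at five concentrations were used to interpolate endpoints linearly. Abbreviation: GI50, concentration required for 50% inhibition of growth.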 Activity calls are given as the source filed them. Cut-off read from the data, not from the text of the source: active = GI50 up to about 1.1 µM and inactive = higher.

What was measured:
Test in all cases: inhibition of tumour cell growth, NCI panel, 48 h
[1] = tested on: A549
[2] = tested on: ACHN
[3] = tested on: BT-549
[4] = tested on: CAKI-1
[5] = tested on: DLD-1
[6] = tested on: DU-145
[7] = tested on: HOP-62
[8] = tested on: HOP-92
[9] = tested on: HT-29
[10] = tested on: KM12
[11] = tested on: LOX IMVI
[12] = tested on: MDA-MB-435
[13] = tested on: MOLT-4
[14] = tested on: Malme-3M
[15] = tested on: NCI-H226
[16] = tested on: SF-268
[17] = tested on: SK-MEL-5
[18] = tested on: SNB-19
[19] = tested on: SR
[20] = tested on: UO-31

Measured: GI50

C=C(CN(C)C)C(=O)c1ccccc1OC
inactive: [1] > 67.8 µM | [2] 14.5 µM | [3] 17.4 µM | [4] 9.82 µM | [5] 4.49 µM | [6] > 45 µM | [7] > 52.8 µM | [8] 14.7 µM | [9] 20.5 µM | [10] 25.3 µM | [11] 13.8 µM | [12] 19.5 µM | [13] 2.46 µM | [14] 7.66 µM | [15] 37.2 µM | [16] 25.2 µM | [17] 17.1 µM | [18] 44.4 µM | [19] 10.2 µM | [20] 16.4 µM

O=P(O)(NCCCl)NCCCl [PALIFOSFAMIDE]
inactive: [1] 81.5 µM | [2] 39.3 µM | [3] > 100 µM | [4] 39.8 µM | [5] > 10 µM | [6] 92.9 µM | [7] 65.6 µM | [8] > 100 µM | [9] > 10 µM | [10] > 10 µM | [11] 29.9 µM | [12] > 100 µM | [13] 60.3 µM | [14] > 100 µM | [15] > 100 µM | [16] 57.8 µM | [17] > 10 µM | [18] > 10 µM | [19] 4.95 µM | [20] > 100 µM
